Results published in BindingDB's records for doi:10.1021/acs.jmedchem.8b01596 (China Pharmaceutical University, 2019).

Target: Hypoxia-inducible factor 1-alpha (Homo sapiens, UniProt Q16665)
Assay: Inhibition of HIF-1alpha in human HeLa cells after 6 hrs by luciferase reporter gene assay

Chain of Hypoxia-inducible factor 1-alpha (Q16665 whole entry): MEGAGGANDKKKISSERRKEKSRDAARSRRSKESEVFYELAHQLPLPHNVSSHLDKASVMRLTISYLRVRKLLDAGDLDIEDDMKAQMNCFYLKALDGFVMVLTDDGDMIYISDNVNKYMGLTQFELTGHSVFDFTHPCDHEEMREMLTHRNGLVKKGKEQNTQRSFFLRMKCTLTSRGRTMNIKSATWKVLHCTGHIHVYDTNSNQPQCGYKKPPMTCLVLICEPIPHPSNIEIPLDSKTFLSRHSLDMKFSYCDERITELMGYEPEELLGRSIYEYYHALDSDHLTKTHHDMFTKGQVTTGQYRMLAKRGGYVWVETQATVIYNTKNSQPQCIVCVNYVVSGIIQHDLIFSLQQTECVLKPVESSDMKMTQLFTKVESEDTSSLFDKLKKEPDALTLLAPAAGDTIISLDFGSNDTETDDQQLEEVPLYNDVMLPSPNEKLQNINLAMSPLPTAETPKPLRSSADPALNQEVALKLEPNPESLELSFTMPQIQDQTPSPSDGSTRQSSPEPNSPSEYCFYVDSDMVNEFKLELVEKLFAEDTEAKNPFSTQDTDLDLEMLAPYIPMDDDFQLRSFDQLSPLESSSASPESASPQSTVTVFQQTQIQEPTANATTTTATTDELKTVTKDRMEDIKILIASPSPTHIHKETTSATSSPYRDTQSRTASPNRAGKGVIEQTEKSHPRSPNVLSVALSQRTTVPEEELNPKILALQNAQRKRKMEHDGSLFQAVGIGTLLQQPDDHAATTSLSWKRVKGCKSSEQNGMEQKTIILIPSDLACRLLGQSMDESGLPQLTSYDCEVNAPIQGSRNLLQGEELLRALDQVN

## Cc1ccc(C(=O)COC(=O)c2cccc(NC(=O)c3ccc([N+](=O)[O-])cc3[N+](=O)[O-])c2)cc1 [3-[[(2,4-dinitrophenyl)-oxomethyl]amino]benzoic acid [2-(4-methylphenyl)-2-oxoethyl] ester]
  IC50: 2600 nM
